Source: US11359011B2, “Treatment and prevention of cardiovascular disease” (Edifice Health, Inc., priority 2019, dated 2022)

What was measured:
[1] = tested on: estrogen levels; details: while raising testosterone levels; cited from earlier work
[2] = tested on: Mouse thoracic aortas; assay: Acetylcholine relaxation of mouse thoracic aortic rings on an isometric wire myograph after exposure to MIG; details: mouse thoracic aortic sections incubated with different concentrations of recombinant mouse MIG, pre-contracted with U46619; FIG. 6
Method: Mouse thoracic aortas were carefully dissected, and vessels were cut into small rings and mounted on an isometric wire myograph chambers (Danish Myo Technology) and subjected to a normalization protocol. Following normalization, the vessels were incubated with either PBS or different concentrations of recombinant mouse MIG (R&D systems, catalog number 492-MM). A concentration-dependent contraction curve was created by accumulative application of the prostaglandin agonist U46619. Subsequently, concentration-dependent relaxation curves of Acetylcholine were conducted on these vessels and percent relaxation calculated for each dose.

Molecule | reduction of estrogen levels [1] | effect on vasorelaxation (percent relaxation to Acetylcholine) [2]
N#Cc1ccc(C(c2ccc(C#N)cc2)n2cncn2)cc1 [Letrozole] | 98% | –
MIG: recombinant mouse MIG (R&D systems, catalog number 492-MM); monokine induced by gamma interferon, CXC chemokine (protein, UniProt P18340 22-126, looked up) C-X-C motif chemokine 9: TLVIRNARCSCISTSRGTIHYKSLKDLKQFAPSPNCNKTEIIATLKNGDQTCLDPDSANVKKLMKEWEKKISQKKKQKRGKKHQKNMKNRKPKTPQSRRRSRKTT | – | impaired vascular reactivity with increasing concentrations of MIG
